Results reported in ChEMBL document CHEMBL1148225, “Discovery and SAR of trisubstituted thiazolidinones as CCR4 antagonists” (Bioorg Med Chem Lett, 2004).

Biological target: T1, C-C chemokine receptor type 4 (Homo sapiens, UniProt P51679)
T1 sequence (P51679 whole entry): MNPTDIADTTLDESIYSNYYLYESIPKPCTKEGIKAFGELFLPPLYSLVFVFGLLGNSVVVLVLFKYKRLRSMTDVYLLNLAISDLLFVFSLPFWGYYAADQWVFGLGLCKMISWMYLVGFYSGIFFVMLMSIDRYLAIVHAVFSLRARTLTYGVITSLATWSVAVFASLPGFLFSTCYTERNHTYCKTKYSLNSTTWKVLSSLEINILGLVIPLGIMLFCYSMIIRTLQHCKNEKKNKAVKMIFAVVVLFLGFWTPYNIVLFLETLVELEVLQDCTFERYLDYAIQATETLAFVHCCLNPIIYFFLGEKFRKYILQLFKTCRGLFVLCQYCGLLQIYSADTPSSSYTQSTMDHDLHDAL
Test: Inhibition of [125I]MDC binding to recombinant human C-C chemokine receptor type 4 (CCR4) expressed in murine pre-B cells
Assay type: cell-based

First: O=C(C[C@H]1S[C@H](c2cccs2)N(CC(=O)NCCCN2CCOCC2)C1=O)NCc1cccc2ccccc12
Second: O=C(C[C@H]1S[C@H](c2ccsc2)N(CC(=O)NCCCN2CCOCC2)C1=O)NCc1cccc2ccccc12
The IC50 of the first is 2-fold lower: 33 µM for the first, 66 µM for the second.

First: O=C(C[C@H]1S[C@H](c2ccc(Cl)cc2Cl)N(CC(=O)N2CCC(N3CCCCC3)CC2)C1=O)NCc1cccc2ccccc12
Second: CN1CCN(C(=O)CN2C(=O)[C@@H](CC(=O)NCc3cccc4ccccc34)S[C@@H]2c2ccc(Cl)cc2Cl)CC1
The IC50 of the first is 61-fold lower: 0.33 µM for the first, 20 µM for the second.

Compared with `O=C(C[C@H]1S[C@H](c2ccc(F)cc2)N(CC(=O)NCCCN2CCOCC2)C1=O)NCc1cccc2ccccc12`, `O=C(C[C@H]1S[C@@H](c2ccc(Cl)cc2)N(CC(=O)NCCCN2CCOCC2)C1=O)NCc1cccc2ccccc12` is 1.5-fold higher in IC50: 4 µM for the first, ~6 µM for the second.

First: O=C(C[C@H]1S[C@H](c2ccc(Cl)cc2Cl)N(CC(=O)NCCCCN2CCOCC2)C1=O)NCc1cccc2ccccc12
Second: O=C(C[C@H]1S[C@H](c2ccc(Cl)cc2Cl)N(CC(=O)NCCCCCN2CCOCC2)C1=O)NCc1cccc2ccccc12
The IC50 of the first is 6.3-fold lower: 0.38 µM for the first, 2.4 µM for the second.

`O=C(C[C@H]1S[C@H](c2ccc(F)cc2Cl)N(CC(=O)NCCCN2CCOCC2)C1=O)NCc1cccc2ccccc12` and `O=C(C[C@H]1S[C@H](c2ccc(F)cc2F)N(CC(=O)NCCCN2CCOCC2)C1=O)NCc1cccc2ccccc12` are the same in IC50: 1 µM for the first, 1 µM for the second.

Going from `O=C(C[C@H]1S[C@H](Cc2ccccc2)N(CC(=O)NCCCN2CCOCC2)C1=O)NCc1cccc2ccccc12` to `O=C(C[C@H]1S[C@H](c2ccco2)N(CC(=O)NCCCN2CCOCC2)C1=O)NCc1cccc2ccccc12`, the IC50 falls from > 100 µM to 29 µM. The second is the more potent here.

`O=C(C[C@H]1S[C@H](c2cccc(C(F)(F)F)c2)N(CC(=O)NCCCN2CCOCC2)C1=O)NCc1cccc2ccccc12` and `O=C(C[C@H]1S[C@H](c2cc(Cl)ccc2Cl)N(CC(=O)NCCCN2CCOCC2)C1=O)NCc1cccc2ccccc12` are the same in IC50: 12 µM for the first, 12 µM for the second.

Going from `CN(C)CC(=O)NCCN1C(=O)[C@@H](CC(=O)NCc2cccc3ccccc23)S[C@@H]1c1ccc(Cl)cc1Cl` to `CN(C)CCCN(C)C(=O)CN1C(=O)[C@@H](CC(=O)NCc2cccc3ccccc23)S[C@@H]1c1ccc(Cl)cc1Cl`, the IC50 falls from 11 µM to 0.36 µM (31-fold). The second is the more potent here.

Compared with `O=C(C[C@H]1S[C@H](c2ccc(Cl)cc2Cl)N(CCC(=O)N2CCNCC2)C1=O)NCc1cccc2ccccc12`, `O=C(C[C@H]1S[C@H](c2ccc(Cl)cc2Cl)N(CCCN2CCOCC2)C1=O)NCc1cccc2ccccc12` is 9.4-fold higher in IC50: 3.5 µM for the first, 33 µM for the second.

Going from `O=C(C[C@H]1S[C@H](c2ccc(Cl)cc2Cl)N(CC(=O)NCCCN2CCOCC2)C1=O)NCc1cccc(Cl)c1Cl` to `Cc1c(Cl)cccc1CNC(=O)C[C@H]1S[C@H](c2ccc(Cl)cc2Cl)N(CC(=O)NCCCN2CCOCC2)C1=O`, the IC50 falls from 0.79 µM to 0.4 µM (2-fold). The second is the more potent here.

`O=C(CN1C(=O)[C@@H](CC(=O)NC2CCCc3ccccc32)S[C@@H]1c1ccc(Cl)cc1Cl)NCCCN1CCOCC1` (stereo partly drawn) and `O=C(C[C@H]1S[C@H](c2ccc(Cl)cc2Cl)N(CC(=O)NCCCN2CCOCC2)C1=O)NCc1ccccc1Cl` are within 1.5-fold of each other in IC50: 6.7 µM for the first, 10 µM for the second.

Compared with `O=C(C[C@H]1S[C@H](c2ccc(Cl)cc2Cl)N(CC(=O)NCCN2CCOCC2)C1=O)NCc1cccc2ccccc12`, `O=C(C[C@H]1S[C@H](c2cccc(Cl)c2Cl)N(CC(=O)NCCCN2CCOCC2)C1=O)NCc1cccc2ccccc12` is 5.1-fold higher in IC50: 3.5 µM for the first, 18 µM for the second.

Compared with `COc1ccc([C@H]2S[C@H](CC(=O)NCc3cccc4ccccc34)C(=O)N2CC(=O)NCCCN2CCOCC2)c(OC)c1`, `Cc1ccc([C@H]2S[C@H](CC(=O)NCc3cccc4ccccc34)C(=O)N2CC(=O)NCCCN2CCOCC2)c(C)c1` is 3-fold lower in IC50: 33 µM for the first, 11 µM for the second. The second is the more potent here.

First: O=C(C[C@H]1S[C@H](c2ccc(Cl)cc2Cl)N(CC(=O)NCCCN2CCOCC2)C1=O)NCc1cccc(F)c1
Second: Cc1cccc(CNC(=O)C[C@H]2S[C@H](c3ccc(Cl)cc3Cl)N(CC(=O)NCCCN3CCOCC3)C2=O)c1
The IC50 of the first is 1.5-fold lower: 1.5 µM for the first, 2.3 µM for the second. The first is the more potent here.

First: O=C(C[C@H]1S[C@H](c2ccc(Cl)cc2Cl)N(CC(=O)NCCCN2CCOCC2)C1=O)NCc1cccc(C(F)(F)F)c1
Second: O=C(C[C@H]1S[C@H](c2ccc(Cl)cc2Cl)N(CC(=O)NCCCN2CCOCC2)C1=O)NCc1cccc(C(F)(F)F)c1F
The IC50 of the first is 2.5-fold lower: 1 µM for the first, 2.5 µM for the second.

First: O=C(C[C@H]1S[C@H](c2ccc(Cl)cc2Cl)N(CC(=O)NCCCN2CCOCC2)C1=O)NCc1ccco1
Second: Cc1cccc(CNC(=O)C[C@H]2S[C@H](c3ccc(Cl)cc3Cl)N(CC(=O)NCCCN3CCOCC3)C2=O)c1C
The IC50 of the first is 16-fold higher: 7 µM for the first, 0.44 µM for the second. The second is the more potent here.

Going from `COc1ccc(CNC(=O)C[C@H]2S[C@H](c3ccc(Cl)cc3Cl)N(CC(=O)NCCCN3CCOCC3)C2=O)c(OC)c1OC` to `O=C(C[C@H]1S[C@H](c2ccc(Cl)cc2Cl)N(CC(=O)NCCCN2CCOCC2)C1=O)NCc1ccc(Cl)cc1Cl` (stereo in doubt; 72), the IC50 falls from 11 µM to 3 µM (3.7-fold). The second is the more potent here.

Going from `Cc1ccc(CNC(=O)C[C@H]2S[C@H](c3ccc(Cl)cc3Cl)N(CC(=O)NCCCN3CCOCC3)C2=O)n1C` to `O=C(C[C@H]1S[C@H](c2ccc(Cl)cc2Cl)N(CC(=O)NCCCN2CCOCC2)C1=O)NCc1cc(Cl)ccc1Cl`, the IC50 rises from 2.5 µM to 4 µM (1.6-fold). The first is the more potent here.

Going from `C[C@H](NC(=O)C[C@H]1S[C@H](c2ccc(Cl)cc2Cl)N(CC(=O)NCCCN2CCOCC2)C1=O)c1cccc2ccccc12` to `C[C@@H](NC(=O)C[C@H]1S[C@H](c2ccc(Cl)cc2Cl)N(CC(=O)NCCCN2CCOCC2)C1=O)c1cccc2ccccc12`, the IC50 falls from 8 µM to 0.25 µM (32-fold).

Compared with `O=C(C[C@H]1S[C@H](c2ccc(Cl)cc2Cl)N(CC(=O)NCCCN2CCOCC2)C1=O)NCc1cccc(-c2ccccc2)c1`, `O=C(C[C@H]1S[C@H](c2ccc(Cl)cc2Cl)N(CC(=O)NCCCN2CCOCC2)C1=O)NCc1ccccc1-c1ccccc1` is 4.6-fold higher in IC50: 1.3 µM for the first, 6 µM for the second.

Going from `O=C(C[C@H]1S[C@H](c2ccc(Cl)cc2Cl)N(CCNS(=O)(=O)CCCN2CCOCC2)C1=O)NCc1cccc2ccccc12` to `O=C(C[C@H]1S[C@H](c2ccc(Cl)cc2Cl)N(CC(=O)NCCCN2CCCC2)C1=O)NCc1cccc2ccccc12`, the IC50 falls from 24 µM to 0.31 µM (77-fold).

Compared with `O=C(C[C@H]1S[C@H](c2ccc(Cl)cc2Cl)N(Cc2cccc(CN3CCOCC3)c2)C1=O)NCc1cccc2ccccc12`, `O=C(C[C@H]1S[C@H](c2c(Cl)cccc2Cl)N(CC(=O)NCCCN2CCOCC2)C1=O)NCc1cccc2ccccc12` is 12-fold lower in IC50: 100 µM for the first, 8 µM for the second. The second is the more potent here.

First: O=C(C[C@H]1S[C@H](c2ccc(Cl)cc2Cl)N(CC(=O)NCCCN2CCOCC2)C1=O)NCc1ccc2[nH]ccc2c1
Second: O=C(C[C@H]1S[C@H](c2ccc(Cl)cc2Cl)N(CC(=O)NCCCN2CCOCC2)C1=O)NCc1csc2ccccc12
The IC50 of the first is 2.9-fold higher: 1 µM for the first, 0.34 µM for the second. The second is the more potent here.

Compared with `CN1CCN(CCCNC(=O)CN2C(=O)[C@@H](CC(=O)NCc3cccc4ccccc34)S[C@@H]2c2ccc(Cl)cc2Cl)CC1`, `O=C(C[C@H]1S[C@H](c2cc(Cl)cc(Cl)c2)N(CC(=O)NCCCN2CCOCC2)C1=O)NCc1cccc2ccccc12` is 16-fold higher in IC50: 0.57 µM for the first, 9 µM for the second. The first is the more potent here.

First: O=C(C[C@H]1S[C@H](C2CCCCC2)N(CC(=O)NCCCN2CCOCC2)C1=O)NCc1cccc2ccccc12
Second: O=C(C[C@H]1S[C@H](c2ccc(Cl)cc2Cl)N(CC(=O)NCCCN2CCOCC2)C1=O)NCc1ccc(Cl)cc1Cl (stereo in doubt; 66)
The IC50 of the first is 50-fold higher: 100 µM for the first, 2 µM for the second. The second is the more potent here.

`CC(C)(C)CCNC(=O)C[C@H]1S[C@H](c2ccc(Cl)cc2Cl)N(CC(=O)NCCCN2CCOCC2)C1=O` and `CC(C)CCNC(=O)C[C@H]1S[C@H](c2ccc(Cl)cc2Cl)N(CC(=O)NCCCN2CCOCC2)C1=O` are within 1.5-fold of each other in IC50: 21 µM for the first, 19 µM for the second.

`O=C(CN1C(=O)[C@@H](CC(=O)NC(c2ccccc2)c2ccccc2)S[C@@H]1c1ccc(Cl)cc1Cl)NCCCN1CCOCC1` gave an IC50 of 6 µM.
